{"source": "ChEMBL document CHEMBL4145472", "about": "“Novel donepezil-like N-benzylpyridinium salt derivatives as AChE inhibitors and their corresponding dihydropyridine \"bio-oxidizable\" prodrugs: Synthesis, biological evaluation and structure-activity relationship” (Eur J Med Chem, 2018)"}
{"tested_on": "not listed separately", "assay": "Half life in 2% riboflavine solution in PBS at 25 uM by HPLC-UV analysis", "assay_type": "physicochemical", "conditions": "buffer, 25 µM", "units": {"t1/2": "min"}}
{"smiles": "COc1cc2c(cc1OC)C(=O)C(CC1C=CN(Cc3cccc(Cl)c3)C=C1C(N)=O)C2", "note": "(stereo in doubt; 23h-B)", "t1/2": 17.7}
{"molecular_target": "Cholinesterase (Equus caballus, UniProt P81908)", "sequence (P81908 whole entry)": "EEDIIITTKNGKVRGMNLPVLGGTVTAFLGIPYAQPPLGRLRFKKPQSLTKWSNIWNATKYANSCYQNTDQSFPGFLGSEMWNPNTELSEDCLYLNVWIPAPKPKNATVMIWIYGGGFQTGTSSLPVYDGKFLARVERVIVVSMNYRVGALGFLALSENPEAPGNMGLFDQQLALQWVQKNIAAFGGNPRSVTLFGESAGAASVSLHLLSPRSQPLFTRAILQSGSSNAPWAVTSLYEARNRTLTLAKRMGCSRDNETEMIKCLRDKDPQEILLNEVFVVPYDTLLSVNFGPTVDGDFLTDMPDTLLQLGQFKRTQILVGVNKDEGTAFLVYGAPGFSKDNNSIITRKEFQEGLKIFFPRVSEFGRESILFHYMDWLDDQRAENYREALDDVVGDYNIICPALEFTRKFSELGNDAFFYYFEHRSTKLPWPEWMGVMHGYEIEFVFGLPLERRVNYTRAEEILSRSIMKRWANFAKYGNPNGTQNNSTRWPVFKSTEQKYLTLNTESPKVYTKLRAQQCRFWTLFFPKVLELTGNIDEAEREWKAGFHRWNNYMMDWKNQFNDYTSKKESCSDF", "conditions": "not given", "units": {"IC50": "µM"}}
{"smiles": "COc1ccc2c(c1)CCC(CC1C=CN(Cc3ccc(Cl)cc3)C=C1C(C)=O)C2=O", "note": "(stereo not drawn)", "IC50": "> 10"}
{"smiles": "COc1cc2c(cc1OC)C(=O)C(CC1C=CN(Cc3ccccc3)C=C1C(C)=O)CC2", "note": "(stereo in doubt; 24a-D)", "IC50": 9.07}
{"smiles": "COc1ccc2c(c1)CCC(CC1C=CN(Cc3ccc(C)cc3)C=C1C(C)=O)C2=O", "note": "(stereo not drawn)", "IC50": "> 10"}
{"smiles": "COc1cc2c(cc1OC)C(=O)C(Cc1cc[n+](Cc3nc4ccccc4o3)cc1C(N)=O)C2", "note": "(stereo not drawn)", "IC50": "> 10"}
{"smiles": "COc1cc2c(cc1OC)C(=O)C(Cc1cc[n+](Cc3ccc(S(N)(=O)=O)cc3)cc1C(N)=O)C2", "note": "(stereo not drawn)", "IC50": "> 10"}
{"smiles": "CNC(=O)c1c[n+](Cc2ccccc2C)ccc1CC1CCc2cc(OC)ccc2C1=O", "note": "(stereo not drawn)", "IC50": 2.51}
{"smiles": "COC(=O)C1=CN(Cc2cccc(Cl)c2)C=CC1CCC(=O)c1ccc(OC)c(OC)c1", "note": "(stereo not drawn)", "IC50": "> 10"}
{"smiles": "CCC[n+]1ccc(CC2CCc3cc(OC)ccc3C2=O)c(C(C)=O)c1", "note": "(stereo not drawn)", "IC50": "> 10"}
{"smiles": "COc1cc2c(cc1OC)C(=O)C(CC1C=CN(Cc3ccccc3)C=C1C(C)=O)CC2", "note": "(stereo in doubt; 24a-B)", "IC50": 1.83}
{"smiles": "COc1ccc(C(=O)CCCCc2cc[n+](Cc3cccc(Cl)c3)cc2C(N)=O)cc1OC", "IC50": "> 10"}
{"smiles": "CC(=O)C1=CN(Cc2cccc(Cl)c2)C=CC1CC1Cc2cc(F)ccc2C1=O", "note": "(stereo not drawn)", "IC50": "> 10"}
{"smiles": "COc1cc2c(cc1OC)C(=O)C(Cc1cc[n+](Cc3cccc(C)n3)cc1C(N)=O)C2", "note": "(stereo not drawn)", "IC50": "> 10"}
{"smiles": "COc1cc2c(cc1OC)C(=O)C(Cc1cc[n+](Cc3cccc(Cl)c3)cc1C(=O)O)C2", "note": "(stereo not drawn)", "IC50": "> 10"}
{"smiles": "CC(=O)c1c[n+](Cc2cccc(Cl)c2)ccc1CC1Cc2cc(O)ccc2C1=O", "note": "(stereo not drawn)", "IC50": "> 10"}
{"smiles": "COc1cc2c(cc1OC)C(=O)C(Cc1cc[n+](CCc3ccccc3)cc1C(N)=O)C2", "note": "(stereo not drawn)", "IC50": "> 10"}
{"smiles": "COc1ccc(C(=O)CCc2cc[n+](Cc3ccc(Cl)cc3)cc2C#N)cc1OC", "IC50": "> 10"}
{"smiles": "COc1cc2c(cc1OC)C(=O)C(CC1C=CN(Cc3cccc(Cl)c3)C=C1C(N)=O)C2", "note": "(stereo in doubt; 23h-B)", "IC50": 19.9}
{"smiles": "COc1cc2c(cc1OC)C(=O)C(CCCc1cc[n+](Cc3cccc(Cl)c3)cc1C(N)=O)C2", "note": "(stereo not drawn)", "IC50": 3.26}
{"smiles": "COc1ccc(C(=O)CCc2cc[n+](Cc3cccc(F)c3)cc2C#N)cc1OC", "IC50": "> 10"}
{"smiles": "COC(=O)c1c[n+](Cc2cccc(Cl)c2)ccc1CCC(=O)c1ccc(OC)c(OC)c1", "IC50": 2.03}
{"smiles": "COc1cc2c(cc1OC)C(=O)C(Cc1cc[n+](Cc3cccc(O)c3)cc1C(N)=O)C2", "note": "(stereo not drawn)", "IC50": 5.36}
{"smiles": "COc1ccc2c(c1)CCC(CC1C=CN(Cc3cccc(C(F)(F)F)c3)C=C1C(C)=O)C2=O", "note": "(stereo not drawn)", "IC50": "> 10"}
{"smiles": "COc1cc2c(cc1OC)C(=O)C(CC1C=CN(Cc3ccccc3)C=C1C(C)=O)CC2", "note": "(stereo in doubt; 24a-C)", "IC50": 1.67}
{"smiles": "COc1ccc(C(=O)CCc2cc[n+](Cc3cccc(Cl)c3)cc2C(N)=O)cc1OC", "IC50": "> 10"}
{"smiles": "COc1cc2c(cc1O)C(=O)C(Cc1cc[n+](Cc3cccc(Cl)c3)cc1C(C)=O)C2", "note": "(stereo not drawn)", "IC50": "> 10"}
{"molecular_target": "Acetylcholinesterase (Homo sapiens, UniProt P22303)", "sequence (P22303 whole entry)": "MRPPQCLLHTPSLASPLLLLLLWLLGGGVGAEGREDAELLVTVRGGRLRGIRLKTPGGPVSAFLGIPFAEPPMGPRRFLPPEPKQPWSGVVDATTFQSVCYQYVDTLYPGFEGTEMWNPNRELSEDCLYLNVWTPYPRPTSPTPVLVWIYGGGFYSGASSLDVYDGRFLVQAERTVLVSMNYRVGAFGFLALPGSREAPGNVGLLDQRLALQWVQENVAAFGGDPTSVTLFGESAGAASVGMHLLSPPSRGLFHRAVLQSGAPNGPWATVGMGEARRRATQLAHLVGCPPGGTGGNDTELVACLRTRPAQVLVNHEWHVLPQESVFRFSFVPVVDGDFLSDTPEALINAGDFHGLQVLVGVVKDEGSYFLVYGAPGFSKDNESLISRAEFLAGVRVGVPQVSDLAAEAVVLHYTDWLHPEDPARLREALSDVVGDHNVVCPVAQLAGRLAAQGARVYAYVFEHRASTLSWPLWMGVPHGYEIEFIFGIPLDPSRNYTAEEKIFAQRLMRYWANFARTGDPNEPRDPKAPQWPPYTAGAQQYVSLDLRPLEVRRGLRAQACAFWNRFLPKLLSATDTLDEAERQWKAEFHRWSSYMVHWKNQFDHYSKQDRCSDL", "assay": "Inhibition of human erythrocyte AChE using acetylthiocholine iodide as substrate preincubated for 5 mins followed by substrate addition measured every minute for 10 mins by Ellman's method", "conditions": "not given", "units": {"IC50": "µM"}}
{"smiles": "COc1ccc2c(c1)CCC(CC1C=CN(Cc3ccc(Cl)cc3)C=C1C(C)=O)C2=O", "note": "(stereo not drawn)", "IC50": "> 10"}
{"smiles": "COc1cc2c(cc1OC)C(=O)C(CC1C=CN(Cc3ccccc3)C=C1C(C)=O)CC2", "note": "(stereo in doubt; 24a-D)", "IC50": 0.924}
{"smiles": "COc1ccc2c(c1)CCC(CC1C=CN(Cc3ccc(C)cc3)C=C1C(C)=O)C2=O", "note": "(stereo not drawn)", "IC50": "> 10"}
{"smiles": "COc1cc2c(cc1OC)C(=O)C(Cc1cc[n+](Cc3nc4ccccc4o3)cc1C(N)=O)C2", "note": "(stereo not drawn)", "IC50": 9.27}
{"smiles": "COc1cc2c(cc1OC)C(=O)C(Cc1cc[n+](Cc3ccc(S(N)(=O)=O)cc3)cc1C(N)=O)C2", "note": "(stereo not drawn)", "IC50": "> 10"}
{"smiles": "CNC(=O)c1c[n+](Cc2ccccc2C)ccc1CC1CCc2cc(OC)ccc2C1=O", "note": "(stereo not drawn)", "IC50": "> 10"}
{"smiles": "COC(=O)C1=CN(Cc2cccc(Cl)c2)C=CC1CCC(=O)c1ccc(OC)c(OC)c1", "note": "(stereo not drawn)", "IC50": "> 10"}
{"smiles": "CCC[n+]1ccc(CC2CCc3cc(OC)ccc3C2=O)c(C(C)=O)c1", "note": "(stereo not drawn)", "IC50": "> 10"}
{"smiles": "COc1cc2c(cc1OC)C(=O)C(CC1C=CN(Cc3ccccc3)C=C1C(C)=O)CC2", "note": "(stereo in doubt; 24a-B)", "IC50": 0.286}
{"smiles": "COc1ccc(C(=O)CCCCc2cc[n+](Cc3cccc(Cl)c3)cc2C(N)=O)cc1OC", "IC50": "> 10"}
{"smiles": "CC(=O)C1=CN(Cc2cccc(Cl)c2)C=CC1CC1Cc2cc(F)ccc2C1=O", "note": "(stereo not drawn)", "IC50": "> 10"}
{"smiles": "COc1cc2c(cc1OC)C(=O)C(Cc1cc[n+](Cc3cccc(C)n3)cc1C(N)=O)C2", "note": "(stereo not drawn)", "IC50": 1.86}
{"smiles": "COc1cc2c(cc1OC)C(=O)C(Cc1cc[n+](Cc3cccc(Cl)c3)cc1C(C)=O)CC2", "note": "(stereo not drawn)", "IC50": 0.021}
{"smiles": "COc1cc2c(cc1OC)C(=O)C(Cc1cc[n+](Cc3cccc(Cl)c3)cc1C(=O)O)C2", "note": "(stereo not drawn)", "IC50": "> 10"}
{"smiles": "CC(=O)c1c[n+](Cc2cccc(Cl)c2)ccc1CC1Cc2cc(O)ccc2C1=O", "note": "(stereo not drawn)", "IC50": 0.116}
{"smiles": "COc1cc2c(cc1OC)C(=O)C(Cc1cc[n+](CCc3ccccc3)cc1C(N)=O)C2", "note": "(stereo not drawn)", "IC50": 0.896}
{"smiles": "COc1ccc(C(=O)CCc2cc[n+](Cc3ccccc3C(F)(F)F)cc2C#N)cc1OC", "IC50": 0.275}
{"smiles": "COc1ccc(C(=O)CCc2cc[n+](Cc3ccc(Cl)cc3)cc2C#N)cc1OC", "IC50": "> 10"}
{"smiles": "COc1cc2c(cc1OC)C(=O)C(CC1C=CN(Cc3cccc(Cl)c3)C=C1C(N)=O)C2", "note": "(stereo in doubt; 23h-B)", "IC50": 27}
{"smiles": "COc1ccc2c(c1)CCC(CC1C=CN(Cc3cccc(F)c3)C=C1C(C)=O)C2=O", "note": "(stereo not drawn)", "IC50": "> 10"}
{"smiles": "COc1cc2c(cc1OC)C(=O)C(CCCc1cc[n+](Cc3cccc(Cl)c3)cc1C(N)=O)C2", "note": "(stereo not drawn)", "IC50": "> 10"}
{"smiles": "COc1ccc(C(=O)CCc2cc[n+](Cc3cccc(F)c3)cc2C#N)cc1OC", "IC50": 0.011}
{"smiles": "COC(=O)c1c[n+](Cc2cccc(Cl)c2)ccc1CCC(=O)c1ccc(OC)c(OC)c1", "IC50": 0.171}
{"smiles": "COc1cc2c(cc1OC)C(=O)C(Cc1cc[n+](Cc3cccc(O)c3)cc1C(N)=O)C2", "note": "(stereo not drawn)", "IC50": "> 10"}
{"smiles": "CC(=O)c1c[n+](Cc2cccc(Cl)c2)ccc1CC1Cc2cc(F)ccc2C1=O", "note": "(stereo not drawn)", "IC50": "> 10"}
{"smiles": "COc1ccc2c(c1)CCC(CC1C=CN(Cc3cccc(C)c3)C=C1C(C)=O)C2=O", "note": "(stereo not drawn)", "IC50": "> 10"}
{"smiles": "COc1ccc(C(=O)CCc2cc[n+](Cc3cccc(Cl)c3)cc2C(=O)O)cc1OC", "IC50": 0.0181}
{"smiles": "COc1ccc2c(c1)CCC(CC1C=CN(Cc3cccc(C(F)(F)F)c3)C=C1C(C)=O)C2=O", "note": "(stereo not drawn)", "IC50": "> 10"}
{"smiles": "COc1cc2c(cc1OC)C(=O)C(CC1C=CN(Cc3ccccc3)C=C1C(C)=O)CC2", "note": "(stereo in doubt; 24a-C)", "IC50": 0.173}
{"smiles": "COc1ccc(C(=O)CCc2cc[n+](Cc3cccc(Cl)c3)cc2C(N)=O)cc1OC", "IC50": "> 10"}
{"smiles": "COc1ccc2c(c1)CCC(CC1C=CN(Cc3ccccc3F)C=C1C(C)=O)C2=O", "note": "(stereo not drawn)", "IC50": "> 10"}
{"smiles": "COc1cc2c(cc1O)C(=O)C(Cc1cc[n+](Cc3cccc(Cl)c3)cc1C(C)=O)C2", "note": "(stereo not drawn)", "IC50": 0.0027}
